Columns and labels:
human cancer cells = experiment: Combination with Taxol, cancer cell survival in vitro; format: cell-based; conditions: in the presence of β-Lapachone
DLD1 = experiment: Cancer cell line IC50, DLD1; format: cell-based; conditions: Homo sapiens, DLD-1; read-out: Cancer Cell Lines, IC50, Colon DLD1
SW480 = experiment: Cancer cell line IC50, SW480; format: cell-based; conditions: Homo sapiens, read-out: Cancer Cell Lines, IC50, Colon SW480
MCF-7 = experiment: Cancer cell line IC50, MCF-7; format: cell-based; conditions: Homo sapiens, MCF7; read-out: Cancer Cell Lines, IC50, Breast MCF-7
Experimental: (§1) In this experiment, exponentially growing cells were seeded at 1000 cells/well and allowed to attach for 48 h. […] After 10-20 days, cells were fixed and stained with modified Wright-Giemsa stain.

PaCa-2 = experiment: Cancer cell line IC50, PaCa-2; format: cell-based; conditions: Homo sapiens, read-out: Cancer Cell Lines, IC50, Pancreas PaCa-2
A549 = experiment: Cancer cell line IC50, A549; format: cell-based; conditions: Homo sapiens, read-out: Cancer Cell Lines, IC50, Lung A549
HT-29 = experiment: Cancer cell line IC50, HT-29; format: cell-based; conditions: Homo sapiens, read-out: Cancer Cell Lines, IC50, Colon HT-29
NCM460 = experiment: Normal cell line, NCM460; format: cell-based; conditions: Homo sapiens, read-out: Normal Cell Lines, Colon NCM460
MCF10A = experiment: Normal cell line, MCF10A; format: cell-based; conditions: Homo sapiens, MCF-10A; read-out: Normal Cell Lines, Breast MCF10A
Experimental: as §1

[1] = test system: Normal Cell Lines vs Cancer Cell Lines; experiment: Fold selectivity, normal vs cancer cell lines; format: cell-based
[2] = test system: human multiple myeloma (MM) cells; experiment: MTT assay, multiple myeloma cells; format: cell-based; conditions: 4 μM, 24 h, all seven MM cell lines
[3] = test system: normal human Peripheral Blood Mononuclear Cells (PBMC); experiment: MTT assay, PBMC; format: cell-based; conditions: 0.5, 2, 4, and 8 μM, 24 h; fresh or proliferating PBMC
Experimental: Proliferating PBMC were generated by 72 h incubation with phytohemagglutinin (PHA) at 2 μg/mL.

[4] = test system: human breast cancer cells (MCF-7); experiment: Colony formation assay, MCF-7; format: cell-based; conditions: MCF-7, 4 h treatment, 2-4 μM and higher, 10-20 days
Experimental: as §1

[5] = test system: normal human breast epithelial cells (MCF-10A); experiment: Colony formation assay, MCF-10A; format: cell-based; conditions: 4 h treatment, 10-20 days
Experimental: as §1

[6] = test system: human colon cancer cell line DLD1; experiment: Colony formation and MTT assay, DLD1; format: cell-based; conditions: DLD1, 4 hour exposure, 4-5 μM
Experimental: DLD1 cells were seeded into 6-well, 96-well plates and allowed to attach overnight. […] Control cells were treated with DMSO equivalent to the highest dose of β-Lapachone used. For the colony formation assay, colonies were allowed to grow for 14 days; MT assay cells continued in culture for an additional 2 days.

[7] = test system: human colon carcinoma cells (DLD1); experiment: Flow cytometry sub-G1 apoptosis, DLD1; format: cell-based; conditions: DLD1, 2-4 μM, 24 h
Experimental: (§2) Cells were treated for 24 h, then were subjected to flow cytometric analysis after staining with propidium iodide.

[8] = test system: human colon carcinoma cells (SW480); experiment: Flow cytometry sub-G1 apoptosis, SW480; format: cell-based; conditions: SW480, 2-4 μM, 24 h
Experimental: as §2

[9] = test system: normal human colon cells (NCM460); experiment: Flow cytometry sub-G1 apoptosis, NCM460; format: cell-based; conditions: NCM460, 24 h
Experimental: as §2

cytochrome c = experiment: Western blot, cytochrome c release in DLD1; format: cell-based, human
PARP = experiment: Western blot, PARP cleavage; format: cell-based, human; conditions: after 4 hours of exposure
E2F [10] = experiment: Gel mobility shift assay, DLD1 nuclear proteins; format: cell-based, human; conditions: DLD1, 4 μM
Excerpt: (§3) The arrow denotes the location of the putative E2F protein-DNA complex.

E2F [11] = experiment: Gel mobility shift assay, NCM460 nuclear proteins; format: cell-based, human; conditions: NCM460, 4 μM, up to 2 hours
Excerpt: as §3

[12] = test system: human prostate cancer cells (PC-3); experiment: Colony survival, combination with GL331, PC-3; format: cell-based
Excerpt: (§4) The number of colonies in the control well (solvent-treated) was taken as 100% survival.

[13] = test system: human pancreatic cancer cells (Paca-2); experiment: Colony survival, combination with gemcitabine, Paca-2; format: cell-based; conditions: gemcitabine 5 μg/ml day 1 followed by β-lapachone 2 μM day 2
Excerpt: as §4

| IC50 (DLD1) [nM] | IC50 (SW480) [nM] | IC50 (MCF-7) [nM] | IC50 (PaCa-2) [nM] | IC50 (A549) [nM] | IC50 (HT-29) [nM] | Structure (SMILES) | IC50 (NCM460) [nM] | IC50 (MCF10A) [nM] | Fold Selectivity [1] | other results |
| --- | --- | --- | --- | --- | --- | --- | --- | --- | --- | --- |
| – | – | – | – | – | – | CC(=O)O[C@H]1C(=O)[C@@]2(C)[C@H]([C@H](OC(=O)c3ccccc3)[C@]3(O)C[C@H](OC(=O)[C@H](O)[C@@H](NC(=O)c4ccccc4)c4ccccc4)C(C)=C1C3(C)C)[C@]1(OC(C)=O)CO[C@@H]1C[C@@H]2O [Taxol®, paclitaxel] | – | – | – | reduction of effective Taxol concentration (human cancer cells): at least 10 fold |
| 2000 | 1500 | 1000 | 1500 | 1700 | 1800 | CC1(C)CCC2=C(S1)c1ccccc1C(=O)C2=O [3,4-dihydro-2,2-dimethyl-2H-naphtho[1,2-b]thiopyran-5,6-dione] | 7500 | 6700 | ˜4.5 | – |
| 1300 | 1800 | 1000 | – | – | – | CC(C)=CCC1CC2=C(OC1(C)C)c1ccccc1C(=O)C2=O (stereo not shown) [3,4-dihydro-2,2-dimethyl-3-(3-methyl-2-butenyl)-2H-naphtho[1,2-b]pyran-5,6-dione] | 10000 | – | ˜7 | – |
| 3600 | 3300 | 1000 | 1600 | – | 2100 | CC1(C)CCC2=C(O1)c1ccccc1C(=O)C2=O [β-lapachone, 3,4-dihydro-2,2-dimethyl-2H-naphtho[1,2-b]pyran-5,6-dione] | 8100 | 5800 | – | cell viability in cultures (MTT) [2]: significantly decreased; cytotoxicity to PBMC growth (MTT) [3]: No cytotoxicity; colonies [4]: essentially complete elimination of colonies; number of colonies [5]: no reduction in the number of colonies; size of the colonies [5]: smaller; viable cells (colony formation and MTT assay) [6]: eliminates viable cells; apoptosis (sub-G1 fraction) [7]: induce apoptosis; apoptosis (sub-G1 fraction) [8]: induce apoptosis; apoptosis (sub-G1 fraction) [9]: no apoptosis; time of peak cytochrome c release (cytochrome c; DLD1): 2 h; exposure time to cytochrome c release (cytochrome c; DLD1, earliest release): 1 h; PARP cleavage (PARP): cleavage of PARP; nuclear E2F protein levels vs. starting levels (E2F [10]; 0.5 hours): increased; nuclear E2F protein levels vs. starting levels (E2F [10]; 1 hour): markedly elevated; level of E2F expression (E2F [11]): essentially unchanged; colony survival, combination with GL331 ([12]; β-lapachone 2 μM and GL331 2 μM simultaneously, 4 h): complete eradication of colony forming units; colony survival, combination with GL331 ([12]; β-lapachone 2 μM day 1 followed by GL331 2 μM day 2): complete eradication of colony forming units; colony survival, combination with gemcitabine [13]: complete eradication of colony forming units |
| – | – | – | 1200 | 1600 | 1600 | CC1(C)CCSC2=C1C(=O)C(=O)c1ccccc12 [3,4-dihydro-4,4-dimethyl-2H-naphtho[1,2-b]thiopyran-5,6-dione] | 6000 | 6300 | ˜4 | – |
